Reference: patent US11395824B2, “5-HT2C receptor agonists and compositions and methods of use” (Arena Pharmaceuticals, Inc., priority 2015, dated 2022)
Read-outs that look alike come from different tables or passages of the source.

How the values were obtained:
5-HT2C receptor [1] = molecular target: T1, 5-HT2C receptor (Homo sapiens, UniProt P28335); assay: Radioligand binding assay with [125I]DOI; details: competition with [125I]DOI, membranes of HEK293 cells expressing recombinant 5-HT2C receptors; read-out: DOI Binding Ki (nM) 2C
T1 construct: expressed in transfected cells; host or cells: HEK293
T1 sequence (P28335 33-458): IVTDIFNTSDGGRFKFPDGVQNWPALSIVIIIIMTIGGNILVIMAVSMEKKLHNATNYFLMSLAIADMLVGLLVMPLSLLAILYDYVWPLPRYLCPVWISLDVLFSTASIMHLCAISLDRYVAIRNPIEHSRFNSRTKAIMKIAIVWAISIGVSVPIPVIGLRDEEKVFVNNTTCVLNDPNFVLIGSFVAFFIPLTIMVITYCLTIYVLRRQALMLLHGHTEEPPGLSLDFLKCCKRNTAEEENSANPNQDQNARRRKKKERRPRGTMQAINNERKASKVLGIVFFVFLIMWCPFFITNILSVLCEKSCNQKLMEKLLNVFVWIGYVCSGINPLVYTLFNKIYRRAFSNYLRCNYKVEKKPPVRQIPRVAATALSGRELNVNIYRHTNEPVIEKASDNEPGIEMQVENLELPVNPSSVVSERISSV
Method: For the compounds of Table A, the following procedure was used. HEK293 cells stably expressing recombinant 5-HT2C receptors were harvested, suspended in ice-cold phosphate buffered saline, pH 7.4 (PBS), and then centrifuged at 48,000 g for 20 min at 4° C. The resulting cell pellet was then re-suspended in wash buffer containing 20 mM HEPES, pH 7.4 and 0.1 mM EDTA, homogenized on ice using a Brinkman Polytron, and centrifuged (48,000 g for 20 min at 4° C.). The pellet was then resuspended in 20 mM HEPES, pH 7.4, homogenized on ice, and centrifuged (48,000 g for 20 min at 4° C.). Crude membrane pellets were stored at −80° C. until used for radioligand binding assays.
For the compounds of Table A, the following procedure was used. […] Experiments comprised addition of 95 μL of assay buffer (20 mM HEPES, pH 7.4, 10 mM MgCl2), 50 μL of membranes, 50 μL of radioligand stock, and 5 μL of test compound diluted in assay buffer to 96-well microtiter plates, which were then incubated for 1 h at room temperature. Assay incubations were terminated by rapid filtration through PerkinElmer F/C filtration plates under reduced pressure using a 96-well Packard filtration apparatus, followed by washing three times with ice cold assay buffer. Plates were then dried at 45° C. for a minimum of 2 h. Finally, 25 μL of BetaScint™ scintillation cocktail was added to each well and the plates were counted in a Packard TopCount® scintillation counter. In each competition study, test compounds were dosed at ten concentrations with triplicate determinations at each test concentration.

5-HT2A receptor [2] = molecular target: T2, 5-HT2A receptor (Homo sapiens, UniProt P28223); assay: Radioligand binding assay with [125I]DOI; details: competition with [125I]DOI, read-out: DOI Binding Ki (nM) 2A
5-HT2B receptor [3] = molecular target: T3, 5-HT2B receptor (Homo sapiens, UniProt P41595); assay: Radioligand binding assay with [125I]DOI; details: competition with [125I]DOI, read-out: DOI Binding Ki (nM) 2B
5-HT2C receptor [4] = molecular target: T1, 5-HT2C receptor; assay: IP accumulation assay; format: cell-based; details: HEK293 cells expressing recombinant 5-HT2C receptors, [3H]inositol phosphates, 2 h at 37° C.
Method: HEK293 cells expressing recombinant 5-HT2C receptors were added to sterile poly-D-lysine-coated 96-well microtiter plates (35,000 cells/well) and labeled with 0.6 µCi/well of [^3H]inositol in myoinositol-free DMEM for 18 h. Unincorporated [^3H]inositol was removed by aspiration and replaced with fresh myoinositol-free DMEM supplemented with LiCl (10 mM final) and pargyline (10 μM final). Serially diluted test compounds were then added and incubation was conducted for 2 h at 37° C. Incubations were then terminated by lysing cells with the addition of ice-cold 0.1 M formic acid followed by freezing at −80° C. After thawing, total [^3H]inositol phosphates were resolved from [^3H]inositol using AG1-X8 ion exchange resin (Bio-Rad) and [^3H]inositol phosphates were measured by scintillation counting using a Perkin Elmer TopCount® scintillation counter. All EC50 determinations were performed using 10 different concentrations and triplicate determinations were made at each test concentration.

5-HT2A receptor [5] = molecular target: T2, 5-HT2A receptor; assay: IP accumulation assay; format: cell-based; details: [3H]inositol phosphates, read-out: IP Accumulation EC50 (nM) 2A
5-HT2B receptor [6] = molecular target: T3, 5-HT2B receptor; assay: IP accumulation assay; format: cell-based; details: [3H]inositol phosphates, read-out: IP Accumulation EC50 (nM) 2B
[7] = 10 mg BID, patients with type 2 diabetes, cited from earlier work
[8] = patients without diabetes, cited from earlier work
[9] = cited from earlier work
[10] = cited from earlier work; remark: listed apart in the source
[11] = reports that led to withdrawal by the FDA in 1998; cited from earlier work
[12] = patients with type 2 diabetes, BELVIQ BID
[13] = patients without type 2 diabetes
[14] = pivotal phase 3 program, treated for up to two years

T2 sequence (P28223 whole entry): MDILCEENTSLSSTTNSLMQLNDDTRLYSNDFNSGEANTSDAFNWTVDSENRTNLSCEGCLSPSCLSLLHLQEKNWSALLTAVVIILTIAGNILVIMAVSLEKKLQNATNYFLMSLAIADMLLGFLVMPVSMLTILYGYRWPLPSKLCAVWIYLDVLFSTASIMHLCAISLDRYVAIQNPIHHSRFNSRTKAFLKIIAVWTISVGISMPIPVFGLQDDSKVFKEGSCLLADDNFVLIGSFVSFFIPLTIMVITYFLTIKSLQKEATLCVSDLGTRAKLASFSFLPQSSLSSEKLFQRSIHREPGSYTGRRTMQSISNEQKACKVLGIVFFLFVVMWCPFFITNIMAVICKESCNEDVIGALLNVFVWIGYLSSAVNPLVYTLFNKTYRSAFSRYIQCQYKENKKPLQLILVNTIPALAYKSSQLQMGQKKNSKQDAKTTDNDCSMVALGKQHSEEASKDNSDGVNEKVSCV
T3 sequence (P41595 whole entry): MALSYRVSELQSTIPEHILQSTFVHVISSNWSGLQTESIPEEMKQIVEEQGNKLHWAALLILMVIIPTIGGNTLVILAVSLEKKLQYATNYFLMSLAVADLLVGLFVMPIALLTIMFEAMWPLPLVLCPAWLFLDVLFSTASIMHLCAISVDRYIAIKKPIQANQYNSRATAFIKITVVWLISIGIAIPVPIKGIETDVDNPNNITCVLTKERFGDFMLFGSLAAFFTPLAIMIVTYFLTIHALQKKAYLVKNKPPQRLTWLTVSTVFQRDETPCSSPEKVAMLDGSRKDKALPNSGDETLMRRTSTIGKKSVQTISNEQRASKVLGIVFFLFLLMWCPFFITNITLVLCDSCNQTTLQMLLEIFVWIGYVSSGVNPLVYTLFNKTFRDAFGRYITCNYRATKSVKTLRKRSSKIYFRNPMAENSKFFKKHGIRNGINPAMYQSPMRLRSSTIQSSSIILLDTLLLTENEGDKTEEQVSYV

CC1(C)CCC2CCNCc3cccc1c32 (stereo not shown) [Compound 135, 7,7-dimethyl-1,2,3,4,4a,5,6,7-octahydronaphtho[1,8-cd]azepine]
Ki (5-HT2C receptor [1]): 69.6 nM | Ki (5-HT2A receptor [2]): 458 nM | Ki (5-HT2B receptor [3]): 395 nM

CC1(C)CC2CCNCc3ccc(F)c(c32)C12CC2 (stereo not shown) [Compound 119, 8′-fluoro-6′,6′-dimethyl-2′,3′,4′,4a′,5′,6′-hexahydro-1′H-spiro[cyclopropane-1,7′-naphtho[1,8-cd]azepine]]
EC50 (5-HT2C receptor [4]): 391 nM | EC50 (5-HT2A receptor [5]): > 100000 nM | EC50 (5-HT2B receptor [6]): > 100000 nM

c1cc2c3c(c1)C1(CCC1)CCC3CCNC2 (stereo not shown) [Compound 131, 2′,3′,4′,4a′,5′,6′-hexahydro-1′H-spiro[cyclobutane-1,7′-naphtho[1,8-cd]azepine]]
EC50 (5-HT2C receptor [4]): 83.5 nM | EC50 (5-HT2A receptor [5]): > 100000 nM | EC50 (5-HT2B receptor [6]): > 100000 nM

CCc1ccc2c3c1C1(CC1)C1(CC1)CC3CCNC2 (stereo not shown) [Compound 101, 8′-ethyl-2′,3′,4′,4a′,5′-pentahydro-1′H-dispiro[cyclopropane-1,6′-cyclopropane-7′,1″- naphtho[1,8-cd]azepine]]
EC50 (5-HT2C receptor [4]): 2040 nM | EC50 (5-HT2A receptor [5]): > 100000 nM | EC50 (5-HT2B receptor [6]): > 100000 nM

c1cc2c3c(c1)C1(CC1)C1(CC1)CC3CCNC2 (stereo not shown) [Compound 130, 2′,3′,4′,4a′,5′-pentahydro-1′H-dispiro[cyclopropane-1,6′-cyclopropane-7′,1″- naphtho[1,8-cd]azepine]]
Ki (5-HT2C receptor [1]): 1.96 nM | Ki (5-HT2A receptor [2]): 34.4 nM | Ki (5-HT2B receptor [3]): 75.7 nM | EC50 (5-HT2C receptor [4]): 5.21 nM | EC50 (5-HT2A receptor [5]): 465 nM | EC50 (5-HT2B receptor [6]): 967 nM

CC1(C)CC2CCNCc3cccc(c32)C12CC2 (stereo not shown) [Compound 102, 6′,6′-dimethyl-2′,3′,4′,4a′,5′,6-hexahydro-1′H-spiro[cyclopropane-1,7′-naphtho[1,8-cd]azepine]]
Ki (5-HT2C receptor [1]): 10.3 nM | Ki (5-HT2A receptor [2]): 236 nM | Ki (5-HT2B receptor [3]): 255 nM

c1cc2c3c(c1)C1(CCC3CCNC2)CC1 (stereo not shown) [Compound 128, 2′,3′,4′,4a′,5′,6′-hexahydro-1′H-spiro[cyclopropane-1,7′-naphtho[1,8-cd]azepine]]
EC50 (5-HT2C receptor [4]): 108 nM | EC50 (5-HT2A receptor [5]): > 100000 nM | EC50 (5-HT2B receptor [6]): 284 nM

C[C@H]1CNCCc2ccc(Cl)cc21 [lorcaserin, (R)-8-chloro-1-methyl-2,3,4,5-tetrahydro-1H-3-benzazepine]
reduction in HbA1c ([7]; placebo 0.4%): 0.9% | reduction in fasting glucose ([7]; placebo 11.9%): 27.4% | change of insulin resistance (HOMA-IR) ([8]; one study, placebo −0.2): −0.4 | change of fasting insulin ([8]; one study, placebo −1.3 μIU/mL): −3.3 μIU/mL | change of mean fasting glucose ([8]; placebo +0.6 mg/dL): -0.2 mg/dL | patients who decreased the total daily dose of medications used for treatment of dyslipidemia [9, 12]: 5.5% | patients who increased use of medications used for treatment of dyslipidemia [9, 12]: 3.1% | decrease of mean daily doses of sulfonylureas and thiazolidinediones ([9]; patients with type 2 diabetes, BELVIQ groups): 16-24% | patients who decreased total daily dose of antihypertensive medications ([9]; patients with type 2 diabetes): 8.2% | patients who increased total daily dose of antihypertensive medications ([9]; patients with type 2 diabetes): 6.6% | patients who decreased the total daily dose of medications used for treatment of dyslipidemia [9, 13]: 1.3% | patients who decreased total daily dose of antihypertensive medications [9, 13]: 2.2% | patients who increased total daily dose of antihypertensive medications [9, 13]: 2.2% | patients who increased use of medications used for treatment of dyslipidemia [9, 13]: 2.6% | share of excess body weight lost ([10]; first phase 3 trial, based on a normal BMI of 25): about one-third | risk of cardiac valvulopathy ([10]; phase 3 program): did not increase the risk of cardiac valvulopathy | proportion of patients that achieved at least 5% weight loss [10, 14]: About two-thirds | proportion of patients that achieved at least 10% weight loss [10, 14]: over one-third | average weight lost as share of their weight ([10]; pivotal phase 3 program): about 8% | average weight loss, top quartile of patients ([10]; second phase 3 trial): 35 pounds | average weight loss, top quartile of patients, of body weight ([10]; second phase 3 trial): 16%

CCN[C@@H](C)Cc1cccc(C(F)(F)F)c1 [d-fenfluramine]
share of patients with reported cardiac valve defects [11]: up to one third

Brc1ccc2c3c1CCCC3CCNC2 (stereo not shown) [Compound 106, 8-bromo-1,2,3,4,4a,5,6,7-octahydronaphtho[1,8-cd]azepine]
Ki (5-HT2C receptor [1]): 105 nM | Ki (5-HT2A receptor [2]): 244 nM | Ki (5-HT2B receptor [3]): 125 nM

CC1(C)c2cccc3c2C(CCNC3)CC12CC2 (stereo not shown) [Compound 121, 7,7′-dimethyl-2′,3′,4′,4a′,5′,7′-hexahydro-1′H-spiro[cyclopropane-1,6′-naphtho[1,8-cd]azepine]]
Ki (5-HT2C receptor [1]): 27.6 nM | Ki (5-HT2A receptor [2]): 423 nM | Ki (5-HT2B receptor [3]): 634 nM | EC50 (5-HT2C receptor [4]): 222 nM | EC50 (5-HT2A receptor [5]): > 100000 nM | EC50 (5-HT2B receptor [6]): > 100000 nM
